# Results reported in patent US20090182149A1, “SALT OF SULFINYLBENZIMIDAZOLE COMPOUND, AND CRYSTAL AND AMORPHOUS FORM THEREOF” (priority 2006, published 2009).
# System: gastric secretion (gastric acid output) in chronic gastrostormy tube-implanted dogs
# Assay: Gastric secretion inhibitory action in chronic gastrostormy tube-implanted dogs (histamine-stimulated)
# Assay type: in vivo
# Details: i.d., histamine i.v.; for Gastric secretion inhibitory action (%): first day, 1 h 40 min to 2 h after administration; for Gastric secretion inhibition duration (%): second day (24 hours after administration)
# Method: Gastric Secretion Inhibitory Action in Chronic Gastrostormy Tube-Implanted Dogs
# Large dogs (body weight: 14-19 kg) having chronic gastrostormy tubes implanted were used to examine the gastric secretion inhibitory action and gastric secretion inhibitory action durations of the example compounds. The experiment was conducted over a period of 2 days. On the first day, histamine (50 or 75 μg/kg/h) was continuously administered intravenously for 3 hours and gastric juice was taken every 20 minutes. One hour after starting histamine administration, the example compound suspended or dissolved in a 0.5% methylcellulose solution was administered to the duodenum through an indwelling catheter at a dose of 0.1 ml/kg. The gastric secretion inhibitory action of the example compound was examined for 2 hours thereafter. On the second day (24 hours after administration of the example compound), histamine was continuously administered intravenously for 2 hours and gastric juice was taken every 20 minutes to examine the gastric secretion inhibitory action duration. After measuring the gastric juice volume, 0.5 ml of gastric juice was sampled and subjected to neutralization titration to pH 7.0 with a 0.04 mol/l sodium hydroxide solution to measure the acid concentration. The acid concentration was multiplied by the gastric juice volume to determine the gastric acid output. The gastric secretion inhibitory action was evaluated by the gastric secretion inhibition (%) on the first day. The gastric secretion inhibitory action (%) was determined by the formula shown below. Where two or more cases were examined, the average of all the cases was determined.
# Gastric secretion inhibitory action (%)=(A−B)/A×100
# [A]: Gastric acid output during 20 minutes, from 40 minutes to 1 hour after start of histamine administration [B]: Gastric acid output during 20 minutes, from 1 hour and 40 minutes to 2 hours after administration of example compound
# The gastric secretion inhibitory action duration was evaluated by the gastric secretion inhibition (%) on the second day. The gastric secretion inhibitory action duration (%) was determined by the formula shown below.
# Gastric secretion inhibitory action duration (%)=(C−D)/C×100
# [C]: Total gastric acid output from start to one hour after histamine administration on the first day [D]: Total gastric acid output from start to one hour after histamine administration on the second day
compound,measurement,setting,value
"Cc1cnc(C[S+]([O-])c2nc3ccccc3[n-]2)c(C)c1OCC1COC(C)(C)OC1.[Na+] [Compound A, Sodium salt of (R)-2-({[4-(2,2-dimethyl-1,3-dioxan-5-yl)methoxy-3,5-dimethylpyridin-2-yl]methyl}sulfinyl)-1H-benzimidazole]",Gastric secretion inhibitory action (%),"0.1 mg/kg, average of 4 cases",8%
same,Gastric secretion inhibition duration (%),"0.1 mg/kg, 4 cases",6%
same,Gastric secretion inhibitory action (%),"0.2 mg/kg, average of 4 cases",65%
same,Gastric secretion inhibition duration (%),"0.2 mg/kg, 4 cases",46%
same,Gastric secretion inhibitory action (%),"0.4 mg/kg, average of 10 cases",97%
same,Gastric secretion inhibition duration (%),"0.4 mg/kg, 10 cases",77%
same,Gastric secretion inhibitory action (%),"0.8 mg/kg, average of 8 cases",100%
same,Gastric secretion inhibition duration (%),"0.8 mg/kg, 8 cases",89%
